Values quoted from earlier work in publication PMC5688156, “The natural product carolacton inhibits folate-dependent C1 metabolism by targeting FolD/MTHFD” (Nature Communications, 2017).

System: human cells
Design: method as in PMID 9765352, PMID 9533527, PMID 9067281
Conditions: poor activity; cited from earlier work

Nc1nc2c(c(=O)[nH]1)N1C(=O)N(c3ccc(C(=O)N[C@@H](CCC(=O)O)C(=O)O)cc3)CC1CN2 (stereo partly shown) [LY345899]
IC50: 128 µM
